The results in this text go back to patent US11780821B2, “Inhibitors of fibroblast activation protein” (Praxis Biotech LLC, priority 2017, dated 2023).

As a reminder, the IC50 is the concentration at which inhibition is half-maximal.

Holding throughout (type): biochemical
For assay [1], the target named is T1, recombinant mouse FAPα (rmFAPα) (Mus musculus, UniProt P97321).
T1 construct: purchased R&S system (so in the source)
T1 sequence (P97321 1-761): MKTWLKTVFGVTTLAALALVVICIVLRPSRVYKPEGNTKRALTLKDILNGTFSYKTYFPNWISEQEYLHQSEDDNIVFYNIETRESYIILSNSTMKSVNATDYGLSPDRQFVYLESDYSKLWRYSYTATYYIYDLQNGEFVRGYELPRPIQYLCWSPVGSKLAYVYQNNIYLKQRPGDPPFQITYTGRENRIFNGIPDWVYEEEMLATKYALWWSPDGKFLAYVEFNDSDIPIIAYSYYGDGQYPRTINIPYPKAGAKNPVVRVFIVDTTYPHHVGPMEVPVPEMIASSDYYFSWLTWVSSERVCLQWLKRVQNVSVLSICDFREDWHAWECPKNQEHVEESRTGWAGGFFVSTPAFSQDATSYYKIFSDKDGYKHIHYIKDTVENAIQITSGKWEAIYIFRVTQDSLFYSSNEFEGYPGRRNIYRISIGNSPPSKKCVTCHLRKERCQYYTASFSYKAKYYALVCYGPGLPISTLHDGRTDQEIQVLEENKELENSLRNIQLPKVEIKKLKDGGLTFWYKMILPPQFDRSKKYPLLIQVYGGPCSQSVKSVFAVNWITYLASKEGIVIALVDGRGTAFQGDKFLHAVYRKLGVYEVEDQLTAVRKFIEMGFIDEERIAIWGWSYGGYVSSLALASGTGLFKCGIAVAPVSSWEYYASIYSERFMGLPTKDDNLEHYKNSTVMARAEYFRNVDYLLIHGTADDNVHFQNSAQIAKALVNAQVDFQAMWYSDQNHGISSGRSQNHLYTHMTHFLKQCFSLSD
Put plainly: FAPα enzymatic exopeptidase (dipeptidase) activity assay. To be noted: 1 μM test compound; Z-Gly-Pro-AMC substrate; read-out: rmFAPα (% exo inh @ 1 μM). How it is done:
FAPα enzymatic exopeptidase (dipeptidase) activity assay. […] 7-Amino-4-Methylcoumarin (AMC) release was detected by measuring fluorescence at Ex/Em 380/460 nm using a Multifunction Microplate Reader (Synergy 4, Biotek). All measurements were carried out in duplicate. […] For the calculations, the average measurements from reactions containing only vehicle and substrate, without enzyme, were used as a blank and were subtracted from the rest of the measurements. Percent inhibition was calculated using the average measurements from reactions containing vehicle, enzyme, and substrate as the maximum of enzymatic activity. Measurements were performed as a single point.

For assay [2], the target named is T2, recombinant human FAPα (rhFAPα) (Homo sapiens, UniProt Q12884).
T2 construct: purchased R&S system (so in the source)
T2 sequence (Q12884 1-760): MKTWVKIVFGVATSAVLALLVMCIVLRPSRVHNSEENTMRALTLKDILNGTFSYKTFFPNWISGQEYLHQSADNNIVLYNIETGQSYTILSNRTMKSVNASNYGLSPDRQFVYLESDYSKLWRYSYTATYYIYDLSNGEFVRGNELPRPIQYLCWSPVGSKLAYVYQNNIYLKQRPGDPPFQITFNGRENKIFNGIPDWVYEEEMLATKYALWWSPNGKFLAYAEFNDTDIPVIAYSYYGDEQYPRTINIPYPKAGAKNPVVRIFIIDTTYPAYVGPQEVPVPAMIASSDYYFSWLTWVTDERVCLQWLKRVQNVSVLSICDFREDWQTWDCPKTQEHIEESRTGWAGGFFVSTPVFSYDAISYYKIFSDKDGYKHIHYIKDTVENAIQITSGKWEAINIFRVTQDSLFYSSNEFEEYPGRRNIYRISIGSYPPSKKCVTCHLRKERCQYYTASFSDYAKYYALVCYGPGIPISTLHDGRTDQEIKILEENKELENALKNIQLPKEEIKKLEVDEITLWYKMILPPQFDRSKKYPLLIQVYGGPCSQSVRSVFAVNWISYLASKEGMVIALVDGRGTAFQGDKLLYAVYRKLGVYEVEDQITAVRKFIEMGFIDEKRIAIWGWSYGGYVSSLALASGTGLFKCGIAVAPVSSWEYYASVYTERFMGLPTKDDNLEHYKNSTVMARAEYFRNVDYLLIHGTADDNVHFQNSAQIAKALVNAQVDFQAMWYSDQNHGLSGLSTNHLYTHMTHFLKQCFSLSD
The assay is described as above. To be noted: for IC50: exopeptidase, read-out: rhFAPα (exo IC50).

Assay [3] has as its target T3, recombinant mouse DPPIV (rmDPPIV) (Mus musculus, UniProt P28843).
T3 construct: purchased R&S system (so in the source)
Put plainly: DPPIV enzymatic activity assay. The note with it: H-Gly-Pro-pNA substrate.

The target in assay [4] is T4, recombinant mouse PREP (rmPREP) (Mus musculus, UniProt Q9QUR6).
T4 construct: purchased R&S system (so in the source)
T4 sequence (Q9QUR6 whole entry): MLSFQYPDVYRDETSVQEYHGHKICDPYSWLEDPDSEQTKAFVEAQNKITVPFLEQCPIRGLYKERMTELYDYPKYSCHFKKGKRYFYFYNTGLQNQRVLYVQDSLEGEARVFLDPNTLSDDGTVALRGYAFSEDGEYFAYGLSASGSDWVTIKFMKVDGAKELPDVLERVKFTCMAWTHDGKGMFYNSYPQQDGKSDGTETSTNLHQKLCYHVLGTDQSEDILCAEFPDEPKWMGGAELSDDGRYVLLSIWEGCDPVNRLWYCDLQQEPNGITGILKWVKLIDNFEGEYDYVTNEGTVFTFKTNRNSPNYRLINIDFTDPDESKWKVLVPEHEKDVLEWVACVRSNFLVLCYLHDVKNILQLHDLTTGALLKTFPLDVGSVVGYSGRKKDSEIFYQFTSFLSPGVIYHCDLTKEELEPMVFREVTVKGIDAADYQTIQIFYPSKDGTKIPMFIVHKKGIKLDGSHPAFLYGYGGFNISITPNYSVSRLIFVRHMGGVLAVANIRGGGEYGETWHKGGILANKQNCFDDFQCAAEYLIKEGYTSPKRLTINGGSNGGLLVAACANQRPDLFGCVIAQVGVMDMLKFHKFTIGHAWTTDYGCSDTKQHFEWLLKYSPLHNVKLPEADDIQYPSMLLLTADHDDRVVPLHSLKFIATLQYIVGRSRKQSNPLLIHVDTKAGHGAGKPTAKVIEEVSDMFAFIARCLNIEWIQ
Put plainly: PREP enzymatic activity assay. To be noted: Z-Gly-Pro-AMC substrate. Here is the method: (§1) 7-Amino-4-Methylcoumarin (AMC) release was detected by measuring fluorescence at Ex/Em 380/460 nm using a Multifunction Microplate Reader (Synergy 4, Biotek). All measurements were carried out in triplicate.

Assay [5] addresses T5, recombinant human DPP9 (rhDPP9) (Homo sapiens, UniProt Q86TI2).
T5 construct: purchased R&S system (so in the source)
Put plainly: DPP9 enzymatic activity assay. The note with it: H-Gly-Pro-AMC substrate. Here is the method:
as §1

Assay [6] addresses T1, recombinant mouse FAPα (rmFAPα). The assay is described as follows: FAPα enzymatic exopeptidase (dipeptidase) activity assay. To be noted: for IC50: exopeptidase, read-out: rmFAPα (exo IC50).
Assay [7] deals with T6, recombinant human DPPIV (rhDPPIV) (Homo sapiens, UniProt P27487).
T6 construct: purchased R&S system (so in the source)
T6 sequence (P27487 whole entry): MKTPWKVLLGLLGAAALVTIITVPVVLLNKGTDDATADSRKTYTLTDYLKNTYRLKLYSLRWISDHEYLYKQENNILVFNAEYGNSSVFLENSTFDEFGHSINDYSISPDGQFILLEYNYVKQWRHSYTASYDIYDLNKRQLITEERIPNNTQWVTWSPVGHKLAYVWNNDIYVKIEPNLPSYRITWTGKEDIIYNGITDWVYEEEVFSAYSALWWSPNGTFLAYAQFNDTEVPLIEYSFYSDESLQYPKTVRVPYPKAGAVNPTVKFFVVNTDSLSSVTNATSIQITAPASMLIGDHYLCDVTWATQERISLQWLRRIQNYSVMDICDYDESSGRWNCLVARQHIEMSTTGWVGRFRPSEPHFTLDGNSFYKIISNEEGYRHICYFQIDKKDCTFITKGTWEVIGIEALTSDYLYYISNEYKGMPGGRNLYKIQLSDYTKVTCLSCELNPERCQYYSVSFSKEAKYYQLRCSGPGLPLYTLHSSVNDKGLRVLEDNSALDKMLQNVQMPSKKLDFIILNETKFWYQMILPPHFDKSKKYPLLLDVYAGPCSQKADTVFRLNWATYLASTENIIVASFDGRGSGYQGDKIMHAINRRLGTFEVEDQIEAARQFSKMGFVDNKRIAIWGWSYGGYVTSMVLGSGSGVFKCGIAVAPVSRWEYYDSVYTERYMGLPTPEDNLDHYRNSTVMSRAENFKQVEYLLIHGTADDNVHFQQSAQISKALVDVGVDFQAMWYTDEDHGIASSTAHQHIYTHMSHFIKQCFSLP
The assay is described as follows: DPPIV enzymatic activity assay. The note with it: H-Gly-Pro-pNA substrate.

For assay [8], the target named is T7, recombinant human PREP (rhPREP) (Homo sapiens, UniProt P48147).
T7 sequence (P48147 1-710): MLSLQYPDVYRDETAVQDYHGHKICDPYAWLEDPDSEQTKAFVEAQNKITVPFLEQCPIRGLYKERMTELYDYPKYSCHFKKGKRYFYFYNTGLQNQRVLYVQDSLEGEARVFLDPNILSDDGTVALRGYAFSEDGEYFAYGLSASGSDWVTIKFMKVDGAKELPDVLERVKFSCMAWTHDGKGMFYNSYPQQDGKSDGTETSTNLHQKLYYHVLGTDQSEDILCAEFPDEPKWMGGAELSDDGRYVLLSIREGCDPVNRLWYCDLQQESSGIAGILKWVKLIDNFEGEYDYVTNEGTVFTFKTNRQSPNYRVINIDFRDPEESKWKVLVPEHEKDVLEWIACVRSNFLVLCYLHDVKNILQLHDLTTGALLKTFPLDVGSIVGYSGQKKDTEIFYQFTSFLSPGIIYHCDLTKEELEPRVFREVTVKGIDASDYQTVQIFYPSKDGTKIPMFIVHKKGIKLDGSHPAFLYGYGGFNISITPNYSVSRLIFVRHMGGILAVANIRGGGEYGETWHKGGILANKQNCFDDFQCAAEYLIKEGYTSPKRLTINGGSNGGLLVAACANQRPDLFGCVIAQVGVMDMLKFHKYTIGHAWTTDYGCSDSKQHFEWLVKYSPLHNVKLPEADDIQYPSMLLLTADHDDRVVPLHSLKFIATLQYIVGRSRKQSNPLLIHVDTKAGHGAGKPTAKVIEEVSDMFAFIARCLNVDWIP
Put plainly: PREP enzymatic activity assay. To be noted: Z-Gly-Pro-AMC substrate. How it is done: as §1

Read-outs that look alike come from different tables or passages of the source.

T3 sequence (P28843 whole entry): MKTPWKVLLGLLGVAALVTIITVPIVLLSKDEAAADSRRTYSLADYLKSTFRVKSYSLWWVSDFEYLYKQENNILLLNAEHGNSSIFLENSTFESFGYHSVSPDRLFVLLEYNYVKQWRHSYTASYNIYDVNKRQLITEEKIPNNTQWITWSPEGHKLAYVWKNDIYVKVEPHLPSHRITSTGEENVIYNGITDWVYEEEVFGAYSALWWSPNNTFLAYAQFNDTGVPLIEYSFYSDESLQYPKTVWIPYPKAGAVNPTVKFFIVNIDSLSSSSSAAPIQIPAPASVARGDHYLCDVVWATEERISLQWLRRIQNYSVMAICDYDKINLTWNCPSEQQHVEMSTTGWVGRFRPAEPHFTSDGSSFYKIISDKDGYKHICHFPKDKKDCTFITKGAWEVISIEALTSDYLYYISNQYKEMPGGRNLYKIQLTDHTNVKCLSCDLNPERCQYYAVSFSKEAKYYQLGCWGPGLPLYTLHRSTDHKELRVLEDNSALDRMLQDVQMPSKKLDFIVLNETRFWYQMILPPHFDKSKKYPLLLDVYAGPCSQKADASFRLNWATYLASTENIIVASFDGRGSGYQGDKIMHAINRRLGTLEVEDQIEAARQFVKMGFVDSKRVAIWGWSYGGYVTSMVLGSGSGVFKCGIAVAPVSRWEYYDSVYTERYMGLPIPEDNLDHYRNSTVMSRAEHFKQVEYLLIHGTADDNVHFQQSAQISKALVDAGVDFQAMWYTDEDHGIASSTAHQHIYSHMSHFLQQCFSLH
T5 sequence (Q86TI2 whole entry): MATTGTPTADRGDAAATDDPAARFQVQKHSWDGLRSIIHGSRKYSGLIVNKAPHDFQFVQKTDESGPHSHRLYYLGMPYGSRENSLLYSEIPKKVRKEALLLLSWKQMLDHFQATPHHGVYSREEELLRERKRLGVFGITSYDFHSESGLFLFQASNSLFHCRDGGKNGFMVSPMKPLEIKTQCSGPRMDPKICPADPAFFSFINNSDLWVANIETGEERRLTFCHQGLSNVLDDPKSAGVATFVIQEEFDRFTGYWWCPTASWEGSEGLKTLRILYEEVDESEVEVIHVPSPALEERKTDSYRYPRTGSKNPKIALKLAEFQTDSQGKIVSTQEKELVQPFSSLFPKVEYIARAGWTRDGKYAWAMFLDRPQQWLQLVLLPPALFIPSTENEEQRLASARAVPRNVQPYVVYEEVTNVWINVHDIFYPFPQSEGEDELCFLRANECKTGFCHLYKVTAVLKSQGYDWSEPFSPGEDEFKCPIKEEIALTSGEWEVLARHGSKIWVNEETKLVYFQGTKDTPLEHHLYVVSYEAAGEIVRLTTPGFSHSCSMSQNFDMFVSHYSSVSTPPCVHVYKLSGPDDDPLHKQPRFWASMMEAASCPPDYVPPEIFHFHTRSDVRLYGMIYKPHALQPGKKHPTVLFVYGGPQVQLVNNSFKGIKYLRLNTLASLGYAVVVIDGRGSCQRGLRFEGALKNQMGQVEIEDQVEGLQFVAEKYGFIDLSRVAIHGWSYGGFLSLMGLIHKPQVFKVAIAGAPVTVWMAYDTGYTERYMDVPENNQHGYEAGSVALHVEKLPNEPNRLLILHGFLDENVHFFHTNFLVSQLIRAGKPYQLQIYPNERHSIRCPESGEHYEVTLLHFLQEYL

As for `N#C[C@@H]1CC(F)(F)CN1C(=O)CNC(=O)C1Cc2ccccc2C1` [Example 7, (S)—N-(2-(2-cyano-4,4-difluoropyrrolidin-1-yl)-2-oxoethyl)-2,3-dihydro-1H-indene-2-carboxamide], in assay [1], the inhibition at 1 µM is less than 25%.
On to `N#C[C@@H]1CC(F)(F)CN1C(=O)CNC(=O)c1ccc2nc(O)ccc2c1` [Compound 10, (S)—N-(2-(2-cyano-4,4-difluoropyrrolidin-1-yl)-2-oxoethyl)-2-hydroxyquinoline-6-carboxamide], for which the inhibition at 1 µM in assay [1] is 25 to 50%.
Consider `Cn1cc(C(=O)NCC(=O)N2CC(F)(F)C[C@H]2C#N)c2ccccc2c1=O` [Example 9, (S)—N-(2-(2-cyano-4,4-difluoropyrrolidin-1-yl)-2-oxoethyl)-2-methyl-1-oxo-1,2-dihydroisoquinoline-4-carboxamide], for which, in assay [1], the inhibition at 1 µM is more than 50%. Besides, the IC50 is less than 1000 nM in assay [2] (Table 2, Z-Gly-Pro-AMC); less than 1000 nM in assay [2] (Table 3); more than 10 µM in assay [3]; less than 1 µM in assay [4]; more than 10 µM in assay [5]; less than 1000 nM in assay [6] (Table 2, Z-Gly-Pro-AMC). Moreover, the IC50 in assay [6] (Table 3) was less than 1000 nM.
Regarding `N#C[C@@H]1CC(F)(F)CN1C(=O)CNC(=O)c1cn(-c2ccccc2)c(=O)c2ccccc12` [Example 2, (S)—N-(2-(2-cyano-4,4-difluoropyrrolidin-1-yl)-2-oxoethyl)-1-oxo-2-phenyl-1,2-dihydroisoquinoline-4-carboxamide], the inhibition at 1 µM in assay [1] lay within 25 to 50%.
As to `N#Cc1ccc(C(=O)NCC(=O)N2CC(F)(F)C[C@H]2C#N)cc1C(F)(F)F` [Compound 12, (S)-4-cyano-N-(2-(2-cyano-4,4-difluoropyrrolidin-1-yl)-2-oxoethyl)-3-(trifluoromethyl)benzamide], in assay [1], the inhibition at 1 µM fell in the range of 25 to 50%.
As for `N#C[C@@H]1CC(F)(F)CN1C(=O)CNC(=O)c1ccc2ncccc2c1` [Example 4, (S)—N-(2-(2-cyano-4,4-difluoropyrrolidin-1-yl)-2-oxoethyl)quinoline-6-carboxamide], the inhibition at 1 µM in assay [1] was more than 50%. Besides, the IC50 in assay [2] (Table 2, Z-Gly-Pro-AMC) was less than 1000 nM; in assay [3], 1 to 10 µM; in assay [7], more than 10 µM; in assay [8], more than 10 µM; in assay [4] it was more than 10 µM; in assay [6] (Table 2, Z-Gly-Pro-AMC), less than 1000 nM. Also, the IC50 in assay [6] (Table 3) is less than 1000 nM.
In the case of `Cn1cc(C(=O)NCC(=O)N2CC(F)(F)C[C@H]2C#N)ccc1=O` [Compound 16, (S)—N-(2-(2-cyano-4,4-difluoropyrrolidin-1-yl)-2-oxoethyl)-1-methyl-6-oxo-1,6-dihydropyridine-3-carboxamide], the IC50 in assay [2] (Table 2, Z-Gly-Pro-AMC) is less than 1000 nM; in assay [2] (Table 3), less than 1000 nM; in assay [3] it was more than 10 µM; in assay [4] it was more than 10 µM. In addition, in assay [2] (read-out: rhFAPα (% exo inh @ 1 μM)), the inhibition at 1 µM was more than 50%.
With `N#C[C@@H]1CC(F)(F)CN1C(=O)CNC(=O)c1ccc(C(N)=O)cc1` [Compound 11, (S)—N-(2-(2-cyano-4,4-difluoropyrrolidin-1-yl)-2-oxoethyl)terephthalamide], in assay [1], the inhibition at 1 µM lay in the range of 25 to 50%.
For the compound `N#C[C@@H]1CC(F)(F)CN1C(=O)CNC(=O)c1ccc(=O)[nH]c1` [Example 6, (S)—N-(2-(2-cyano-4,4-difluoropyrrolidin-1-yl)-2-oxoethyl)-6-oxo-1,6-dihydropyridine-3-carboxamide], the IC50 in assay [2] (Table 2, Z-Gly-Pro-AMC) is less than 1000 nM; in assay [3], more than 10 µM; in assay [7], more than 10 µM; in assay [6] (Table 2, Z-Gly-Pro-AMC) it was less than 1000 nM; in assay [6] (Table 3) it was less than 1000 nM. For the same compound, in assay [6] (read-out: rmFAPα (% exo inh @ 1 μM)), the inhibition at 1 µM is more than 50%.
Regarding `N#C[C@@H]1CC(F)(F)CN1C(=O)CNC(=O)N1Cc2ccccc2C1` [Example 8, (S)—N-(2-(2-cyano-4,4-difluoropyrrolidin-1-yl)-2-oxoethyl) isoindoline-2-carboxamide], the inhibition at 1 µM in assay [1] was less than 25%.
Still for that read-out and setting: the figure for `N#C[C@@H]1CC(F)(F)CN1C(=O)CNC(=O)c1cn(C2CC2)c(=O)c2ccccc12` [Example 3, (S)—N-(2-(2-cyano-4,4-difluoropyrrolidin-1-yl)-2-oxoethyl)-2-cyclopropyl-1-oxo-1,2-dihydroisoquinoline-4-carboxamide] is 25 to 50%.
Turning to `N#C[C@@H]1CC(F)(F)CN1C(=O)CNC(=O)c1ncnc2c1CCC2` [Example 5, (S)—N-(2-(2-cyano-4,4-difluoropyrrolidin-1-yl)-2-oxoethyl)-6,7-dihydro-5H-cyclopenta[d]pyrimidine-4-carboxamide], in assay [1], the inhibition at 1 µM was less than 25%.
